Assay results: PMC9687798, “Atypical Substrates of the Organic Cation Transporter 1” (Biomolecules, 2022)
Where a chain is given by its changes, count along the chain named. “Also recorded” adds a separate entry of the source.

How the values were obtained:
[1] = target: T1, human OCT1*1 (wild-type) (Homo sapiens, UniProt O15245); experiment: Concentration-dependent uptake (transport kinetics) in HEK293 cells overexpressing OCT1 wild-type; conditions: for Clint (±SEM): intrinsic clearance = ratio of Vmax and KM, OCT1 wild-type
T1 sequence (O15245 1-554): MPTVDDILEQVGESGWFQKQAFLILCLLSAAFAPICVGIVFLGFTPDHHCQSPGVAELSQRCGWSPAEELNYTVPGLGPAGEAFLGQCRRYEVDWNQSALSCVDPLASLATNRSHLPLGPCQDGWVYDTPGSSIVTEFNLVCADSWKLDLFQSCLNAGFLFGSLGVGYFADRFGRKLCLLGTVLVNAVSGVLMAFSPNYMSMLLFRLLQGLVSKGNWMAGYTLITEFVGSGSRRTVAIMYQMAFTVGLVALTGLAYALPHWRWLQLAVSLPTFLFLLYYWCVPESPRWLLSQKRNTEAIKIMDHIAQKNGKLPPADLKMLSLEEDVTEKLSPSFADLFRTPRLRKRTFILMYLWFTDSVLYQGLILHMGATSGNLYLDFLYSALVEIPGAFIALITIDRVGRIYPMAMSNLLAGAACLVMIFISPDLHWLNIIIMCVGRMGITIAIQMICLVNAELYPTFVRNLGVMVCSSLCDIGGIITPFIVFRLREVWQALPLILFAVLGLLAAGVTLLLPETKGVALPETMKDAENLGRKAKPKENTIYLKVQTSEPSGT

[2] = target: T1, human OCT1*1 (wild-type); experiment: Cellular uptake ratio, OCT1-overexpressing HEK293 cells vs empty vector; assay type: cell-based; conditions: based on ratio uptake data at 1 µM
Description: (§1) The wild-type cell lines of OCT1 and OCT2, as well as the variant cell lines OCT1*2 and *3, were generated using the Flp-In system (Thermo Fisher Scientific, Darmstadt, Germany) as described in previous publications. The cell line overexpressing OCT3 was a kind gift from Dr. Koepsell and Dr. Gorbulev (University of Würzburg, Germany). Cells transfected with the empty pcDNA5/FRT vector were used for the transport experiments as a control cell line. All cells were cultured approximately up to passage 30.
(§2) Forty-eight hours before the transport experiments, 600,000 cells were plated on 12-well plates pre-coated with poly-D-lysine and incubated at 37 °C with 5% CO2. The prepared 12-well plate with cells was positioned on a heating plate pre-warmed to 37 °C. After removing the medium, the cells were washed with 37 °C HBSS+ (10 mM HEPES in Hank’s balanced salt solution, pH 7.4). Then, one pre-defined concentration of a substrate was added to each well. The incubation period was stopped by adding 2 mL of 4 °C HBSS+ and removing the cells from the heating plate. The cells were washed twice with 4 °C HBSS+. For cell lysis, the cells were incubated for 15 min with 500 µL of 80% acetonitrile (LGC Standards, Wesel, Germany), which contained a respective internal standard (Table 1).
(§3) For concentration-dependent transport, the cells were incubated with defined substrate concentrations (0.1, 1, 10, 30, 100, 300, 600, 1000 µM) for the respective pre-defined incubation times. […] The uptake by a transporter was normalised to the uptake by empty vector-transfected cells. […] The results of transport experiments were normalized to the total protein concentration per well. Total protein quantification was performed using a bicinchoninic acid assay with bovine serum albumin as standard.
(§4) The ratios of cellular uptake were calculated by dividing the total uptake of transporter-overexpressing cells by the total uptake into empty vector transfected cells. The concentration-dependent cellular net uptake was used for analysis of transport kinetics by subtracting for each substrate concentration the uptake of empty vector-transfected cells from the uptake of transporter-overexpressing cells. […] The intrinsic clearance Clint was expressed with the ratio of Vmax and KM.

[3] = target: T2, mutant human OCT1 D474N (Homo sapiens, UniProt O15245, D474N); experiment: Cellular uptake by HEK293 cells overexpressing variant OCT1 D474N; assay type: cell-based; conditions: p < 0.01
T2 construct: expressed in transfected cells
T2 sequence (O15245 1-554 D474N): T1 sequence (O15245 1-554) with D474N

[4] = target: T3, OCT3 (Homo sapiens, UniProt O75751); experiment: Cellular uptake ratio, OCT3-overexpressing HEK293 cells vs empty vector; assay type: cell-based; conditions: based on ratio uptake data at 1 µM
T3 construct: expressed in transfected cells; host or cells: HEK293, stably transfected; gift from Dr. Koepsell and Dr. Gorbulev (University of Würzburg)
T3 sequence (O75751 1-556): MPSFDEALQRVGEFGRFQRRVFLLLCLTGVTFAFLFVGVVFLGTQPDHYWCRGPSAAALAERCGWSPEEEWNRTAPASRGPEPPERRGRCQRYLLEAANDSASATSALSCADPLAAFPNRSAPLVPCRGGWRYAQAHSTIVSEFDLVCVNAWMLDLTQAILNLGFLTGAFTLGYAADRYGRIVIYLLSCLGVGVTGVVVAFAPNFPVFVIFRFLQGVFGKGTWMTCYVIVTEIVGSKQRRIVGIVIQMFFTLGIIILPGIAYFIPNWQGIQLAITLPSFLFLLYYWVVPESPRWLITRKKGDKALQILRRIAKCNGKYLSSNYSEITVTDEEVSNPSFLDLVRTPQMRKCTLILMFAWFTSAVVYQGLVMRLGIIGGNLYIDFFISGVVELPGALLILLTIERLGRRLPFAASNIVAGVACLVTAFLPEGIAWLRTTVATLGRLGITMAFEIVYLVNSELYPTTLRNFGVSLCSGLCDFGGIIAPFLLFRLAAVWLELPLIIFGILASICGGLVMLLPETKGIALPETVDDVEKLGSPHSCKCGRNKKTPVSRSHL
Description: as §1, §2, §3, §4

[5] = target: T4, wild-type human OCT2 (Homo sapiens, UniProt O15244); experiment: Cellular uptake ratio, OCT2-overexpressing HEK293 cells vs empty vector; assay type: cell-based; conditions: based on ratio uptake data at 1 µM
T4 sequence (O15244 1-555): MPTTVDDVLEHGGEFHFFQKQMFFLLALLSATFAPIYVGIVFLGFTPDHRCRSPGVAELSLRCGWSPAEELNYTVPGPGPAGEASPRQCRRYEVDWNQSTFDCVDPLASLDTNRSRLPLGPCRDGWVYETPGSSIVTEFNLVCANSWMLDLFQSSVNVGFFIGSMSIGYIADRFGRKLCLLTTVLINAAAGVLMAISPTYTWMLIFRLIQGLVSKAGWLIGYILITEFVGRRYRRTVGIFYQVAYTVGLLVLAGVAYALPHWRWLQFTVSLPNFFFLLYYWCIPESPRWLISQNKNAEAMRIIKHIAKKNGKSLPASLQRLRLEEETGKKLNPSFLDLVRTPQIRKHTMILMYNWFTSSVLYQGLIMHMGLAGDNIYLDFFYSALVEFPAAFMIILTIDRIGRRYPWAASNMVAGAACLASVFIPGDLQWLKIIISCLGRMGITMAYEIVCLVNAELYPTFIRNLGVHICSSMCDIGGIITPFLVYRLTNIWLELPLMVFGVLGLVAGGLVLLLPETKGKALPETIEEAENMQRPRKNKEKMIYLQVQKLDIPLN
Description: as §1, §2, §3, §4

[6] = target: T5, OCT1*3 (R61C) (Homo sapiens, UniProt O15245, R61C); experiment: Cellular uptake by HEK293 cells overexpressing OCT1*3; assay type: cell-based; conditions: 1 µM substance
T5 construct: expressed in transfected cells
T5 sequence (O15245 1-554 R61C): T1 sequence (O15245 1-554) with R61C
Description: as §1, with “The transport experiments were performed using HEK293 cells that overexpress human OCT1*1 (wild-type), mutant human OCT1 D474N, variant human OCT1*2 (M420del) and OCT1*3 (R61C), wild-type human OCT2, and OCT3 after stable transfection. The wild-type” for “The wild-type”
as §2
(§5) For time-dependent transport, the cells were incubated with 1 µM of the substance for 15 to 240 s to determine the linear uptake range ≥ 15 s. For concentration-dependent transport, the cells were incubated with defined substrate concentrations (0.1, 1, 10, 30, 100, 300, 600, 1000 µM) for the respective pre-defined incubation times. […]; 100 µM) and pre-defined incubation times. The uptake by a transporter was normalised to the uptake by empty vector-transfected cells. […] The results of transport experiments were normalized to the total protein concentration per well. Total protein quantification was performed using a bicinchoninic acid assay with bovine serum albumin as standard.
(§6) The ratios of cellular uptake were calculated by dividing the total uptake of transporter-overexpressing cells by the total uptake into empty vector transfected cells. The concentration-dependent cellular net uptake was used for analysis of transport kinetics by subtracting for each substrate concentration the uptake of empty vector-transfected cells from the uptake of transporter-overexpressing cells. The transport kinetic parameters Vmax and KM were determined with non-linear regression by using the Michaelis–Menten equation for net uptake data and by using the Michaelis–Menten equation extended with a linear term for total uptake data (GraphPad Prism 5.01, GraphPad software, LA Jolla, CA, USA). The intrinsic clearance Clint was expressed with the ratio of Vmax and KM.

[7] = system: empty vector-transfected HEK cells; experiment: Concentration-dependent uptake into empty vector-transfected HEK293 cells; assay type: cell-based, human; conditions: uptake into empty vector-transfected cells
Description: as §1, with “The transport experiments were performed using HEK293 cells that overexpress human OCT1*1 (wild-type), mutant human OCT1 D474N, variant human OCT1*2 (M420del) and OCT1*3 (R61C), wild-type human OCT2, and OCT3 after stable transfection. The wild-type” for “The wild-type”
as §2, §5, §6

[8] = as above; assay type: cell-based, human; conditions: human, empty vector (pcDNA5/FRT)-transfected HEK293 cells, pH 7.4; empty vector-transfected HEK cells; read-out: intrinsic clearance
Description: as §1, with “The transport experiments were performed using HEK293 cells that overexpress human OCT1*1 (wild-type), mutant human OCT1 D474N, variant human OCT1*2 (M420del) and OCT1*3 (R61C), wild-type human OCT2, and OCT3 after stable transfection. The wild-type” for “The wild-type”
as §2, §5, §6

SMILES	OCT1 substrate classification from concentration-dependent uptake ([1]; good >5, poor 1–5, non-substrate <1 µL/mg protein/min or uptake not above empty vector)	OCT1 transport category [2]	enhancement of uptake by OCT1 D474N compared to wild-type [3]	OCT3 transport category [4]	OCT2 transport category [5]	uptake by OCT1*3 in comparison to OCT1*1 [6]	Clint (±SEM) [1]	Clint (±SEM) ([1]; listed as methyldopa)	Km [7]	Vmax [7]	microsomal CLint [8]
C[N+](C)(C)[C@@H](Cc1c[nH]c2ccccc12)C(=O)[O-] [Hypaphorine, hypaphorine]	linear increase in total uptake of both cell lines	0 (no transport by OCT1, OCT2, and OCT3 occurred (i.e., no kinetic parameters or uptake ratio <2 without significance))	two-fold enhancement; also recorded: significantly increased uptake by the variant OCT1 D474N	0 (no transport by OCT1, OCT2, and OCT3 occurred (i.e., no kinetic parameters or uptake ratio <2 without significance))	0 (no transport by OCT1, OCT2, and OCT3 occurred (i.e., no kinetic parameters or uptake ratio <2 without significance))	–	–	–	–	–	–
Nc1ccn([C@@H]2CS[C@H](CO)O2)c(=O)n1 [Lamivudine, lamivudine]	–	–	–	0 (no transport by OCT1, OCT2, and OCT3 occurred (i.e., no kinetic parameters or uptake ratio <2 without significance))	–	reduction in uptake	–	–	–	–	–
C[C@](N)(Cc1ccc(O)c(O)c1)C(=O)O [Methyldopa, L-(–)-α-methyldopa]	–	+/− (poor transport with a Clint < 5 or ratio between 1–2 with statistical significance (p < 0.05))	–	0 (no transport by OCT1, OCT2, and OCT3 occurred (i.e., no kinetic parameters or uptake ratio <2 without significance))	0 (no transport by OCT1, OCT2, and OCT3 occurred (i.e., no kinetic parameters or uptake ratio <2 without significance))	–	5.94 ± 4.63 µL/mg Protein/min	5.94 µL/mg Protein/min	32.2 µM	488 pmol/mg protein/min	15.1 µL/min/mg
